Measured values reported in patent US20210267978A1, “NANOPARTICLE FORMULATIONS OF IKE AND METHODS OF USE THEREOF” (The Trustees of Columbia University in the City of New York, priority 2018, published 2021).

How the values were obtained:
Format in all cases: cell-based
HBL 1 = experiment: DLBCL cell line sensitivity to IKE (CellTiter-Glo viability, 24 h); conditions: HBL 1, 24 hours
Experimental: (§1) DLBCL cells were plated at 10,000 cells per well in white 384-well plates (32 μL per well) in technical duplicates and incubated overnight. The cells were then treated with 8 μL medium containing a two-fold dilution series of vehicle (DMSO), IKE (starting from 100 μM) with or without Fer-1 (starting from 200 μM). After 24 h incubation, 40 μL of 50% CellTiter-Glo (Promega) 50% cell culture medium was added to each well and incubated at room temperature with shaking for 15 min. Luminescence was measured using a Victor X5 plate reader (PerkinElmer). All cell viability data were normalized to the DMSO vehicle condition. Experiments were performed three independent times with different passages for each cell line.

KARPAS 422 = experiment: as above; conditions: KARPAS 422, 24 hours
Experimental: as §1

LY 7 = experiment: as above; conditions: LY7; LY 7, 24 hours; read-out: cell line sensitivity to IKE (IC50 class)
Experimental: as §1

LY 8 = experiment: as above; conditions: LY 8, 24 hours; read-out: cell line sensitivity to IKE (IC50 class)
Experimental: as §1

RIVA = experiment: as above
Experimental: as §1

SUDHL 16 = experiment: as above; conditions: Homo sapiens, SU-DHL-16; SUDHL 16, 24 hours; read-out: cell line sensitivity to IKE (IC50 class)
Experimental: as §1

SUDHL 5 = experiment: as above; conditions: Homo sapiens, SU-DHL-5; SUDHL 5, 24 hours; read-out: cell line sensitivity to IKE (IC50 class)
Experimental: as §1

SUDHL 6 = experiment: as above; conditions: Homo sapiens, SU-DHL-6; SUDHL 6, 24 hours; read-out: cell line sensitivity to IKE (IC50 class)
Experimental: as §1

SUDHL 8 = experiment: as above; conditions: SUDHL 8, 24 hours
Experimental: as §1

U2932 = experiment: as above; conditions: Homo sapiens; U2932, 24 hours; read-out: cell line sensitivity to IKE (IC50 class)
Experimental: as §1

U937 = experiment: as above; conditions: Homo sapiens, U-937; U937, 24 hours; read-out: cell line sensitivity to IKE (IC50 class)
Experimental: as §1

WSU-NHL = experiment: as above
Experimental: as §1

SUDHL6 cells [1] = experiment: Reduced glutathione measurement in cell culture (Fluorometric-Green); conditions: Homo sapiens, SU-DHL-6, 24 hours, average of three experiments, read-out: IC50 of GSH depletion
Experimental: 2.4 million cells were incubated with DMSO, IKE, or β-mercaptoethanol (β-Me) at a density of 0.2 million cells/mL for 24 h. Cells were collected and washed with cold PBS once. Cell number was counted by Vi-Cell. Cells were resuspended in ice cold RIPA buffer (Thermo Fisher Scientific, 89900) with 100 μL/one million cells. Samples were centrifuged for 15 min at 4° C. at 17,000×g. The resulting supernatant was deproteinized using a trichloroacetic acid and sodium bicarbonate solution and kept on ice. The sample was diluted with assay buffer provided in GSH/GSSG Ratio Detection Assay Kit (Abcam, ab13881) ten-fold. Reduced glutathione (GSH) levels were determined using Fluorometric-Green provided in the kit following the manufacture's protocol. 384-well (Corning) low volume black flat bottom polystyrene non-treated microplates 1230F99 were used in this experiment.

SUDHL6 cells [2] = experiment: C-11 BODIPY lipid peroxidation measurement (flow cytometry); conditions: different concentrations of IKE
Experimental: 0.20 million SUDHL-6 cells were seeded in sixc^− well plates and treated with DMSO, IKE, or Fer-1 at specific concentration. The final cell density of 0.05 million cells/mL. After 24 h, cells were harvested by centrifuging at 300×g for 5 min. Cells were resuspended in 500 μL HBSS containing 2 μM C11-BODIPY (BODIPY 581/591 C11) (Thermo Fisher Scientific, D3861) and incubated at 37° C. for 15 min. Cells were pelleted and resuspended in HBSS. Fluorescence intensity was measured on the FL1 channel with gating to record live cells only (gate constructed from DMSO treatment group). A minimum of 10,000 cells were analyzed per condition.

CC(C)Oc1ccc(C(=O)Cn2ccnc2)cc1-n1c(CN2CCN(C(=O)COc3ccc(Cl)cc3)CC2)nc2ccccc2c1=O [IKE, Imidazole ketone erastin]
cell line sensitivity to IKE (IC50 class) (HBL 1): moderately resistant | cell line sensitivity to IKE (IC50 class) (KARPAS 422): moderately resistant | IC50 (LY 7): > 10000 nM | IC50 (LY 8): < 100 nM | cell line sensitivity to IKE (IC50 class) (RIVA): moderately resistant | IC50 (SUDHL 16): < 100 nM | IC50 (SUDHL 5): < 100 nM | IC50 (SUDHL 6): < 100 nM | cell line sensitivity to IKE (IC50 class) (SUDHL 8): moderately resistant | IC50 (U2932): > 10000 nM | IC50 (U937): > 10000 nM | cell line sensitivity to IKE (IC50 class) (WSU-NHL): moderately resistant | IC50 (SUDHL6 cells [1]): 34 nM | lipid ROS (C11-BODIPY) (SUDHL6 cells [2]): dose-dependent increase in lipid ROS
